SMILES strings stand for the structures. Read-outs that look alike come from different tables or passages of the source.

The record followed here is patent US20250228239A1, “MOLECULES HAVING PESTICIDAL UTILITY, AND INTERMEDIATES, COMPOSITIONS, AND PROCESSES, RELATED THERETO” (priority 2024, published 2025).

The subject of test [1] is Cabbage Looper (Trichoplusia ni, TRIPNI). The test is described as follows: Bioassays on Cabbage Looper (CL), 128-well diet tray assay. The test is classed as in vivo. The settings on record: Trichoplusia ni. As to the method: (§1) Certain molecules disclosed in this document were tested against BAW and CL using procedures described in the following examples. In the reporting of the results, the “BAW & CL Rating Table” was used (See Table Section).
Bioassays on CL were conducted using a 128-well diet tray assay. One to five second instar CL larvae were placed in each well (3 mL) of the diet tray that had been previously filled with 1 mL of artificial diet to which 50 μg/cm^2 of the test molecule (dissolved in 50 μL of 90:10 acetone-water mixture) had been applied (to each of eight wells) and then allowed to dry. Trays were covered with a clear self-adhesive cover, vented to allow gas exchange, and held at 25° C., 14:10 light-dark for five to seven days. Percent mortality was recorded for the larvae in each well; activity in the eight wells was then averaged. The results are indicated in the table entitled “Table ABC: Biological Results” (See Table Section).

Test [2] has as its system Beet Armyworm (Spodoptera exigua, LAPHEG). The test is described as follows: Bioassays on Beet Armyworm (BAW), 128-well diet tray assay. The test is classed as in vivo. Particulars: Spodoptera exigua. As to the method: as §1
Bioassays on BAW were conducted using a 128-well diet tray assay. One to five second instar BAW larvae were placed in each well (3 mL) of the diet tray that had been previously filled with 1 mL of artificial diet to which 50 μg/cm^2 of the test molecule (dissolved in 50 μL of 90:10 acetone-water mixture) had been applied (to each of eight wells) and then allowed to dry. Trays were covered with a clear self-adhesive cover, vented to allow gas exchange, and held at 25° C., 14:10 light-dark for five to seven days. Percent mortality was recorded for the larvae in each well; activity in the eight wells was then averaged. The results are indicated in the table entitled “Table ABC: Biological Results” (See Table Section).

The mark [3] stands for this setting: Cabbage Looper, Table ABC / ABC-DP rating, read-out: CL rating.
Where [4] appears, read: Beet Armyworm, Table ABC / ABC-DP rating, read-out: BAW rating.
[5] abbreviates: Cabbage Looper, rating class, read-out: CL.
The mark [6] stands for this setting: Beet Armyworm, rating class, read-out: BAW.
Setting [7] is: Table ABC: Biological Results, species CL, read-out: CL.
[8] abbreviates: Table ABC: Biological Results, species BAW, read-out: BAW.

In the case of `O=C(Nc1c(F)ccc(NC(=O)c2cc(NC(=O)[C@H]3[C@H](c4ccc(F)c(C(F)(F)F)c4)C3(Cl)Cl)ccc2Cl)c1F)c1cnns1` [F1820, N-(3-(2-Chloro-5-((1R,3R)-2,2-dichloro-3-(4-fluoro-3-(trifluoromethyl)phenyl)cyclopropane-1-carboxamido)benzamido)-2,6-difluorophenyl)-1,2,3-thiadiazole-5-carboxamide], the pest or weed control at 50 µg/cm2 in test [1] (setting [3]) and in test [2] (setting [4]) was 50 to 100% in each case.

For the molecule `O=C(Nc1c(F)ccc(NC(=O)C(F)(F)F)c1F)c1cc(NC(=O)[C@H]2[C@H](c3ccc(Cl)c(Cl)c3)C2(Cl)Cl)ccc1Cl` [F1537, 2-Chloro-5-((1R,3R)-2,2-dichloro-3-(3,4-dichlorophenyl)cyclopropane-1-carboxamido)-N-(2,6-difluoro-3-(2,2,2-trifluoroacetamido)phenyl)benzamide], the pest or weed control at 50 µg/cm2 in test [1] (setting [5]) and in test [2] (setting [6]) was 50 to 100% each time.

Regarding `O=C(Nc1c(F)ccc(NC(=O)C(F)F)c1F)c1cc(NC(=O)[C@H]2[C@H](c3ccc(F)c(C(F)(F)F)c3)C2(Cl)Cl)cc(F)c1F` [F1573, 5-((1R,3R)-2,2-Dichloro-3-(4-fluoro-3-(trifluoromethyl)phenyl)cyclopropane-1-carboxamido)-N-(3-(2,2-difluoroacetamido)-2,6-difluorophenyl)-2,3-difluorobenzamide], the pest or weed control at 50 µg/cm2 in test [1] (setting [5]) and in test [2] (setting [6]) was 50 to 100% in each case.

As for `O=C(Nc1c(F)ccc(NC(=O)C(F)F)c1F)c1cc(NC(=O)[C@H]2[C@H](c3ccc(Cl)c(Cl)c3)C2(Cl)Cl)cc(F)c1F` [F1577, 5-((1R,3R)-2,2-Dichloro-3-(3,4-dichlorophenyl)cyclopropane-1-carboxamido)-N-(3-(2,2-difluoroacetamido)-2,6-difluorophenyl)-2,3-difluorobenzamide], the pest or weed control at 50 µg/cm2 in test [1] (setting [5]) and in test [2] (setting [6]) was 50 to 100% in each case.

Turning to `O=C(Nc1cccc(F)c1[N+](=O)[O-])c1cc(NC(=O)[C@H]2[C@H](c3ccc(F)c(Cl)c3)C2(Cl)Cl)ccc1Cl` [F1081, 2-Chloro-5-((1R,3R)-2,2-dichloro-3-(3-chloro-4-fluorophenyl)cyclopropane-1-carboxamido)-N-(3-fluoro-2-nitrophenyl)benzamide], the pest or weed control at 50 µg/cm2 in test [1] (setting [7]) and in test [2] (setting [8]) was 50 to 100% in each case.

For the molecule `O=C(Nc1ccc(F)c(NC(=O)C(F)F)c1F)c1cc(NC(=O)[C@H]2[C@H](c3ccc(F)c(C(F)(F)F)c3)C2(Cl)Cl)cc(F)c1F` [F1571, 5-((1R,3R)-2,2-Dichloro-3-(4-fluoro-3-(trifluoromethyl)phenyl)cyclopropane-1-carboxamido)-N-(3-(2,2-difluoroacetamido)-2,4-difluorophenyl)-2,3-difluorobenzamide], the pest or weed control at 50 µg/cm2 in test [1] (setting [5]) and in test [2] (setting [6]) was 50 to 100% throughout.

As to `O=C(Nc1ccc(F)c(NCc2ccc([N+](=O)[O-])cc2)c1F)c1cc(NC(=O)[C@H]2[C@H](c3ccc(F)c(C(F)(F)F)c3)C2(Cl)Cl)ccc1Cl` [F1296, 2-Chloro-5-((1R,3R)-2,2-dichloro-3-(4-fluoro-3-(trifluoromethyl)phenyl)cyclopropane-1-carboxamido)-N-(2,4-difluoro-3-((4-nitrobenzyl)amino)phenyl)benzamide], the pest or weed control at 50 µg/cm2 in test [1] (setting [7]) and in test [2] (setting [8]) was 50 to 100% each time.

Turning to `Nc1cc(NC(=O)c2cc(NC(=O)[C@H]3[C@H](c4ccc(F)c(Cl)c4)C3(Cl)Cl)cc(F)c2Cl)c(F)cc1F` [F1395, N-(5-Amino-2,4-difluorophenyl)-2-chloro-5-((1R,3R)-2,2-dichloro-3-(3-chloro-4-fluorophenyl)cyclopropane-1-carboxamido)-3-fluorobenzamide], the pest or weed control at 50 µg/cm2 in test [1] (setting [5]) and in test [2] (setting [6]) was 50 to 100% each time.

Take `CC(F)(F)CCC(=O)Nc1c(F)ccc(NC(=O)c2cc(NC(=O)[C@H]3[C@H](c4ccc(F)c(Cl)c4)C3(Cl)Cl)ccc2Cl)c1F` [F1864, 2-Chloro-5-((1R,3R)-2,2-dichloro-3-(3-chloro-4-fluorophenyl)cyclopropane-1-carboxamido)-N-(3-(4,4-difluoropentanamido)-2,4-difluorophenyl)benzamide]: the pest or weed control at 50 µg/cm2 in test [1] (setting [3]) and in test [2] (setting [4]) was 50 to 100% each time.

`O=C(Nc1ccc(F)cc1F)c1cc(NC(=O)[C@@H]2[C@@H](c3cc(F)c(F)c(F)c3)C2(Cl)Cl)ccc1Cl` [F1749, 2-Chloro-5-((1S,3S)-2,2-dichloro-3-(3,4,5-trifluorophenyl)cyclopropane-1-carboxamido)-N-(2,4-difluorophenyl)benzamide]: the pest or weed control at 50 µg/cm2 in test [1] (setting [5]) and in test [2] (setting [6]) was 50 to 100% in each case.

As to `Nc1cc(NC(=O)c2cc(NC(=O)[C@H]3[C@H](c4ccc(Cl)c(Cl)c4)C3(Cl)Cl)ccc2F)c(F)cc1F` [F1490, N-(5-Amino-2,4-difluorophenyl)-5-((1R,3R)-2,2-dichloro-3-(3,4-dichlorophenyl)cyclopropane-1-carboxamido)-2-fluorobenzamide], the pest or weed control at 50 µg/cm2 in test [1] (setting [5]) and in test [2] (setting [6]) was 50 to 100% each time.

Consider `CCC(C#N)C(=O)Nc1c(F)ccc(NC(=O)c2cc(NC(=O)[C@H]3[C@H](c4ccc(F)c(C(F)(F)F)c4)C3(Cl)Cl)ccc2Cl)c1F` (stereo partly drawn) [F1756, 2-Chloro-N-(3-(2-cyanobutanamido)-2,4-difluorophenyl)-5-((1R,3R)-2,2-dichloro-3-(4-fluoro-3-(trifluoromethyl)phenyl)cyclopropane-1-carboxamido)benzamide], for which the pest or weed control at 50 µg/cm2 in test [1] (setting [5]) and in test [2] (setting [6]) was 50 to 100% in each case.

In the case of `COCC(=O)NNC(=O)c1cc(NC(=O)[C@H]2[C@H](c3cc(Cl)cc(Cl)c3)C2(Cl)Cl)ccc1Cl` (relative stereo) [F2529, trans-2,2-Dichloro-N-(4-chloro-3-(2-(2-methoxyacetyl)hydrazine-1-carbonyl)phenyl)-3-(3,5-dichlorophenyl)cyclopropane-1-carboxamide], the pest or weed control at 50 µg/cm2 in test [1] (setting [3]) and in test [2] (setting [4]) was 50 to 100% throughout.

Take `O=C(CC(F)(F)F)Nc1c(F)ccc(NC(=O)c2cc(NC(=O)[C@H]3[C@H](c4ccc(F)c(Br)c4)C3(Cl)Cl)ccc2Cl)c1F` [F1718, 5-((1R,3R)-3-(3-Bromo-4-fluorophenyl)-2,2-dichlorocyclopropane-1-carboxamido)-2-chloro-N-(2,4-difluoro-3-(3,3,3-trifluoropropanamido)phenyl)benzamide]: the pest or weed control at 50 µg/cm2 in test [1] (setting [5]) and in test [2] (setting [6]) was 50 to 100% each time.

`Cc1cc(NC(=O)[C@H]2[C@H](c3ccc(F)c(C(F)(F)F)c3)C2(Cl)Cl)cc(C(=O)Nc2c(F)ccc(N)c2F)c1Cl` [F1428, N-(3-Amino-2,6-difluorophenyl)-2-chloro-5-((1R,3R)-2,2-dichloro-3-(4-fluoro-3-(trifluoromethyl)phenyl)cyclopropane-1-carboxamido)-3-methylbenzamide]: the pest or weed control at 50 µg/cm2 in test [1] (setting [5]) and in test [2] (setting [6]) was 50 to 100% each time.

For `CCNC(=O)c1cc(NC(=O)[C@H]2[C@H](c3ccc(F)c(Cl)c3)C2(Cl)Cl)cc(F)c1Cl` (relative stereo) [F2033, trans-2-Chloro-5-(2,2-dichloro-3-(3-chloro-4-fluorophenyl)cyclopropane-1-carboxamido)-N-ethyl-3-fluorobenzamide], the pest or weed control at 50 µg/cm2 in test [1] (setting [3]) and in test [2] (setting [4]) was 50 to 100% each time.

Regarding `C=C(F)C(=O)Nc1c(F)ccc(NC(=O)c2cc(NC(=O)[C@H]3[C@H](c4cc(Cl)c(Cl)c(Cl)c4)C3(Cl)Cl)ccc2Cl)c1F` [F1872, 2-Chloro-5-((1R,3R)-2,2-dichloro-3-(3,4,5-trichlorophenyl)cyclopropane-1-carboxamido)-N-(2,4-difluoro-3-(2-fluoroacrylamido)phenyl)benzamide], the pest or weed control at 50 µg/cm2 in test [1] (setting [3]) and in test [2] (setting [4]) was 50 to 100% throughout.

On to `O=C(Nc1c(F)ccc(NC(=O)C(F)(F)Br)c1F)c1cc(NC(=O)[C@H]2[C@H](c3ccc(F)c(C(F)(F)F)c3)C2(Cl)Cl)cc(F)c1Cl` [F1356, N-(3-(2-Bromo-2,2-difluoroacetamido)-2,6-difluorophenyl)-2-chloro-5-((1R,3R)-2,2-dichloro-3-(4-fluoro-3-(trifluoromethyl)phenyl)cyclopropane-1-carboxamido)-3-fluorobenzamide], for which the pest or weed control at 50 µg/cm2 in test [1] (setting [7]) and in test [2] (setting [8]) was 50 to 100% each time.

As to `O=C(Nc1ccc(F)c(NC(=O)C(F)F)c1F)c1cc(NC(=O)[C@H]2[C@H](c3cc(Cl)c(Cl)c(Cl)c3)C2(Cl)Cl)cc(F)c1Cl` [F1335, 2-Chloro-5-((1R,3R)-2,2-dichloro-3-(3,4,5-trichlorophenyl)cyclopropane-1-carboxamido)-N-(3-(2,2-difluoroacetamido)-2,4-difluorophenyl)-3-fluorobenzamide], the pest or weed control at 50 µg/cm2 in test [1] (setting [7]) and in test [2] (setting [8]) was 50 to 100% throughout.
